In PubChem BioAssay (NCI):
Values joined by “and” are separate entries in the source; they are usually repeats but may differ in a detail not shown here. Equal values may be shown once.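 Interpolation was linear, between the two tested concentrations surrounding the appropriate level; five concentrations were tested over 48 hours in 96-well plates. GI50 is the concentration that inhibits growth by half. TGI denotes the concentration required for complete inhibition of growth.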

How the values were obtained:
Experiment in all cases: DTP human tumour cell line panel, 48 h
HOP-92 NSCLC = system: HOP-92 NSCLC
K-562 leukemia = system: K-562 leukemia
LOX IMVI melanoma = system: LOX IMVI melanoma
RPMI-8226 leukemia = system: RPMI-8226 leukemia
BT-549 breast = system: BT-549 breast
COLO 205 colon = system: COLO 205 colon
CCRF-CEM leukemia = system: CCRF-CEM leukemia
NCI-H522 lung = system: NCI-H522 lung
T-47D breast = system: T-47D breast
SK-MEL-28 melanoma = system: SK-MEL-28 melanoma
786-0 renal = system: 786-0 renal
A498 renal = system: A498 renal
KM12 colon = system: KM12 colon
HS 578T breast = system: HS 578T breast
MCF7 breast = system: MCF7 breast
HT29 colon = system: HT29 colon
HCC-2998 colon = system: HCC-2998 colon
M14 melanoma = system: M14 melanoma
NCI/ADR-RES ovarian = system: NCI/ADR-RES ovarian
SK-OV-3 ovarian = system: SK-OV-3 ovarian
SK-MEL-5 melanoma = system: SK-MEL-5 melanoma
OVCAR-3 ovarian = system: OVCAR-3 ovarian
SR leukemia = system: SR leukemia
UACC-62 melanoma = system: UACC-62 melanoma
ACHN renal = system: ACHN renal
TK-10 renal = system: TK-10 renal
SF-539 CNS = system: SF-539 CNS
OVCAR-8 ovarian = system: OVCAR-8 ovarian
RXF 393 renal = system: RXF 393 renal
HL-60(TB) leukemia = system: HL-60(TB) leukemia
U251 CNS = system: U251 CNS
HOP-62 NSCLC = system: HOP-62 NSCLC
NCI-H23 lung = system: NCI-H23 lung
MDA-MB-231 breast = system: MDA-MB-231 breast
SNB-19 CNS = system: SNB-19 CNS
NCI-H460 lung = system: NCI-H460 lung
SK-MEL-2 melanoma = system: SK-MEL-2 melanoma
OVCAR-4 ovarian = system: OVCAR-4 ovarian
UACC-257 melanoma = system: UACC-257 melanoma
OVCAR-5 ovarian = system: OVCAR-5 ovarian
IGROV1 ovarian = system: IGROV1 ovarian
SF-268 CNS = system: SF-268 CNS
PC-3 prostate = system: PC-3 prostate
NCI-H226 lung = system: NCI-H226 lung
SF-295 CNS = system: SF-295 CNS
SNB-75 CNS = system: SNB-75 CNS
MALME-3M melanoma = system: MALME-3M melanoma
SW-620 colon = system: SW-620 colon
HCT-116 colon = system: HCT-116 colon
CAKI-1 renal = system: CAKI-1 renal
EKVX NSCLC = system: EKVX NSCLC
SN12C renal = system: SN12C renal
A549 NSCLC = system: A549 NSCLC
HCT-15 colon = system: HCT-15 colon
MOLT-4 leukemia = system: MOLT-4 leukemia
MDA-MB-435 = system: MDA-MB-435
DU-145 prostate = system: DU-145 prostate
UO-31 renal = system: UO-31 renal

`C[C@@H]1C[C@H]2C(=O)OCC(NC(=O)[C@H](Cc3cc(F)cc(F)c3)NC(=O)Nc3ccc(Cl)cc3F)C(=O)N3CCC[C@H]3C(=O)N3CCCC[C@H]3C(=O)N[C@@H](C)C(=O)N2C1` (some centres undefined) was tested, and the GI50 (HOP-92 NSCLC) was 1.41 µM and 0.399 µM, the TGI (HOP-92 NSCLC) was 8.43 µM and 7.29 µM and the GI50 (K-562 leukemia) was 0.399 µM. The TGI (K-562 leukemia) was over 100 µM, the GI50 (LOX IMVI melanoma) was 0.898 µM and 0.776 µM and the GI50 (RPMI-8226 leukemia) was 1.19 µM and 0.333 µM. The TGI (RPMI-8226 leukemia) was 7.42 µM and 1.72 µM, the GI50 (BT-549 breast) was 1.91 µM and 0.499 µM and the TGI (BT-549 breast) was 8.74 µM and 6.72 µM. For the same compound, the GI50 (COLO 205 colon) was 1.27 µM and 0.402 µM, the TGI (COLO 205 colon) was 3.64 µM and 1.39 µM and the GI50 (CCRF-CEM leukemia) was 2.18 µM and 0.51 µM. The TGI (CCRF-CEM leukemia) was 47.2 µM and 19 µM, the GI50 (NCI-H522 lung) was 1.44 µM and 0.38 µM and the TGI (NCI-H522 lung) was 8.78 µM and 5.8 µM. For the same compound, the GI50 (T-47D breast) was 1.73 µM and 0.549 µM, the TGI (T-47D breast) was 50 µM and 30.7 µM and the GI50 (SK-MEL-28 melanoma) was 3.04 µM and 1.37 µM. For the same compound, the TGI (SK-MEL-28 melanoma) was 12.5 µM and 16.4 µM, the GI50 (786-0 renal) was 3.06 µM and 1.18 µM and the TGI (786-0 renal) was 50 µM and 55.5 µM. The GI50 (A498 renal) was 2.47 µM, the TGI (A498 renal) was 28.5 µM and 19.2 µM and the GI50 (KM12 colon) was 3.33 µM and 2.5 µM. For the same compound, the TGI (KM12 colon) was 27.1 µM and 19.7 µM, the GI50 (HS 578T breast) was 1.74 µM and 0.603 µM and the TGI (HS 578T breast) was 50 µM and 18.6 µM. The GI50 (MCF7 breast) was 1.89 µM and 0.39 µM, the TGI (MCF7 breast) was 50 µM and 20 µM and the GI50 (HT29 colon) was 1.91 µM and 0.595 µM. For the same compound, the TGI (HT29 colon) was 8.68 µM and 3.37 µM, the GI50 (HCC-2998 colon) was 2.74 µM and 0.619 µM and the TGI (HCC-2998 colon) was 11.2 µM and 4.46 µM. For the same compound, the GI50 (M14 melanoma) was 2.05 µM and 0.448 µM, the TGI (M14 melanoma) was 9.05 µM and 10.3 µM and the GI50 (NCI/ADR-RES ovarian) was 7.72 µM and 2.87 µM. For the same compound, the TGI (NCI/ADR-RES ovarian) was 50 µM and > 100 µM, the GI50 (SK-OV-3 ovarian) was 2.14 µM and 1.51 µM and the TGI (SK-OV-3 ovarian) was 35.6 µM and 17.1 µM. The GI50 (SK-MEL-5 melanoma) was 1.82 µM and 0.566 µM, the TGI (SK-MEL-5 melanoma) was 7.37 µM and 4.56 µM and the GI50 (OVCAR-3 ovarian) was 2.23 µM and 0.55 µM. For the same compound, the TGI (OVCAR-3 ovarian) was 50 µM and 11.4 µM, the GI50 (SR leukemia) was 0.964 µM and 1.37 µM and the TGI (SR leukemia) was 6.9 µM and 14.4 µM. For the same compound, the GI50 (UACC-62 melanoma) was 2.3 µM and 0.644 µM, the TGI (UACC-62 melanoma) was 12.4 µM and 14.9 µM and the GI50 (ACHN renal) was 2.22 µM and 1.14 µM. For the same compound, the TGI (ACHN renal) was 50 µM and > 100 µM, the GI50 (TK-10 renal) was 3.04 µM and 1.49 µM and the TGI (TK-10 renal) was 50 µM and 33.8 µM. The GI50 (SF-539 CNS) was 2.63 µM and 1.27 µM, the TGI (SF-539 CNS) was 10.5 µM and 15.4 µM and the GI50 (OVCAR-8 ovarian) was 1.79 µM and 0.408 µM. For the same compound, the TGI (OVCAR-8 ovarian) was 50 µM and > 100 µM, the GI50 (RXF 393 renal) was 2.89 µM and 1.69 µM and the TGI (RXF 393 renal) was 13.4 µM and 11.5 µM. The GI50 (HL-60(TB) leukemia) was 1.73 µM and 0.287 µM, the TGI (HL-60(TB) leukemia) was 8.21 µM and 1.53 µM and the GI50 (U251 CNS) was 2.2 µM and 0.514 µM. The TGI (U251 CNS) was 50 µM and 28.8 µM, the GI50 (HOP-62 NSCLC) was 2.03 µM and 1.07 µM and the TGI (HOP-62 NSCLC) was 50 µM and 35.8 µM. The GI50 (NCI-H23 lung) was 2.79 µM, the TGI (NCI-H23 lung) was 50 µM and the GI50 (MDA-MB-231 breast) was 1.65 µM and 0.484 µM. The TGI (MDA-MB-231 breast) was 5.9 µM and 4.24 µM, the GI50 (SNB-19 CNS) was 2 µM and 0.46 µM and the TGI (SNB-19 CNS) was 50 µM and > 100 µM. For the same compound, the GI50 (NCI-H460 lung) was 1.88 µM and 0.516 µM, the TGI (NCI-H460 lung) was 50 µM and 17.3 µM and the GI50 (SK-MEL-2 melanoma) was 1.81 µM and 0.337 µM. The TGI (SK-MEL-2 melanoma) was 8.07 µM and 3.28 µM, the GI50 (OVCAR-4 ovarian) was 1.66 µM and 0.482 µM and the TGI (OVCAR-4 ovarian) was 50 µM and > 100 µM. For the same compound, the GI50 (UACC-257 melanoma) was 1.45 µM and 0.449 µM, the TGI (UACC-257 melanoma) was 6.43 µM and 7.05 µM and the GI50 (OVCAR-5 ovarian) was 2.34 µM and 0.751 µM. The TGI (OVCAR-5 ovarian) was 10.9 µM and 16.5 µM, the GI50 (IGROV1 ovarian) was 4.56 µM and 1.6 µM and the TGI (IGROV1 ovarian) was 50 µM and 81.6 µM. The GI50 (SF-268 CNS) was 3.15 µM and 0.645 µM, the TGI (SF-268 CNS) was 50 µM and 51.9 µM and the GI50 (PC-3 prostate) was 1.7 µM and 0.373 µM. The TGI (PC-3 prostate) was 29.4 µM and 19 µM, the GI50 (NCI-H226 lung) was 2.08 µM and 0.312 µM and the GI50 (SF-295 CNS) was 1.87 µM and 0.411 µM. The TGI (SF-295 CNS) was 11.8 µM and 7.71 µM, the GI50 (SNB-75 CNS) was 2.29 µM and 0.365 µM and the TGI (SNB-75 CNS) was 50 µM and 16.9 µM. The GI50 (MALME-3M melanoma) was 3.1 µM and 1.64 µM, the TGI (MALME-3M melanoma) was 16.7 µM and 16.3 µM and the GI50 (SW-620 colon) was 3.37 µM and 0.801 µM. The TGI (SW-620 colon) was 50 µM and > 100 µM, the GI50 (HCT-116 colon) was 1.96 µM and 0.355 µM and the TGI (HCT-116 colon) was 7.37 µM and 2.04 µM. The GI50 (CAKI-1 renal) was 1.9 µM and 0.4 µM, the TGI (CAKI-1 renal) was 50 µM and 15.6 µM and the GI50 (EKVX NSCLC) was 2.16 µM and 0.643 µM. For the same compound, the TGI (EKVX NSCLC) was 50 µM and 97.1 µM, the GI50 (SN12C renal) was 1.68 µM and 0.444 µM and the TGI (SN12C renal) was 50 µM and 82.4 µM. For the same compound, the GI50 (A549 NSCLC) was 1.96 µM and 0.916 µM, the TGI (A549 NSCLC) was 50 µM and > 100 µM and the GI50 (HCT-15 colon) was 1.96 µM and 0.468 µM. For the same compound, the TGI (HCT-15 colon) was 37.3 µM and 10.4 µM, the GI50 (MOLT-4 leukemia) was 0.437 µM and 0.793 µM and the TGI (MOLT-4 leukemia) was 5.12 µM and 17.9 µM. The GI50 (MDA-MB-435) was 2.25 µM and 0.495 µM, the TGI (MDA-MB-435) was 13.2 µM and 12.3 µM and the GI50 (DU-145 prostate) was 2.1 µM and 0.511 µM. The TGI (DU-145 prostate) was 50 µM and > 100 µM, the GI50 (UO-31 renal) was 2.12 µM and 2.03 µM and the TGI (UO-31 renal) was 50 µM and 65.8 µM.
